# Measured values reported in PMC8245323 (2021).
# Columns and labels:
# [1] = system: G4 Kit1 (FRET) (DNA, G4) GGGAGGGCGCTGGGAGGAGGG; assay: FRET melting; conditions: 60 mM potassium cacodylate; pH 7.4; increasing compound concentration up to 3 µM, 200 nM DNA
# [2] = system: G4 Myc (FRET) (DNA, G4) TGAGGGTGGGTAGGGTGGGTAA; assay: FRET melting; conditions: 60 mM potassium cacodylate; pH 7.4; 1 µM compound, 200 nM DNA
# [3] = system: G4 Telo (FRET) (DNA, G4) GGGTTAGGGTTAGGGTTAGGG; assay: FRET melting; conditions: 60 mM potassium cacodylate; pH 7.4; 1 µM compound, 200 nM DNA
# [4] = system: G4 Telo (fluorescence quench) (DNA, G4) AGGGTTAGGGTTAGGGTTAGGGT; assay: fluorescence quench binding assay; conditions: 150 mM KCl; for Kd: 50 mM Tris HCl pH 7.2, 0.5% CHAPS, 0.05% Triton X-100, apparent, 9 nM DNA
# [5] = system: G4 Kit1 (fluorescence quench) (DNA, G4) AGGGAGGGCGCTGGGAGGAGGG; assay: fluorescence quench binding assay; conditions: 150 mM KCl; for Kd: 50 mM Tris HCl pH 7.2, 0.5% CHAPS, 0.05% Triton X-100, apparent, 9 nM DNA
# [6] = system: G4 Myc (fluorescence quench) (DNA, G4) TGGGGAGGGTGGGGAGGGTGGGGAAGG; assay: fluorescence quench binding assay; conditions: 150 mM KCl; for Kd: 50 mM Tris HCl pH 7.2, 0.5% CHAPS, 0.05% Triton X-100, apparent, 9 nM DNA
# [7] = system: dsDNA (FRET) (DNA, hairpin, hexaethylene glycol (HEG, [(-CH2CH2O-)6]) linker between nucleotides 10 and 11) TATAGCTATATATAGCTATA; assay: FRET melting; conditions: 60 mM potassium cacodylate; pH 7.4; increasing compound concentration up to 3 µM, 200 nM DNA
# [8] = system: dsDNA (fluorescence quench) (DNA, duplex) CAATCGGATCGAATTCGATCCGATTG; assay: fluorescence quench binding assay; conditions: 150 mM KCl; 50 mM Tris HCl pH 7.2, 0.5% CHAPS, 0.05% Triton X-100; apparent; 9 nM DNA
# [9] = 50 mM Tris HCl pH 7.2, CHAPS, Triton X-100, highest concentration tested 5 µM
binding [1],ΔTm [2] [°C],ΔTm [3] [°C],"binding [4, 9]","binding [5, 9]","binding [6, 9]",binding [7],Kd [4] [µM],Kd [5] [µM],Kd [6] [µM],Kd [8],Compound
no,0,0,no,no,no,–,–,–,–,–,C#CCCC1(CCC(=O)NC)N=N1
yes,13,27,–,–,–,no,0.459 ± 0.025,0.669 ± 0.049,0.439 ± 0.036,"> 5,000 nM",C#CCCC1(CCC(=O)NCCOCCOCCNCCOc2cc(C(=O)Nc3cc(OCCN)c4ccccc4n3)nc(C(=O)Nc3cc(OCCN)c4ccccc4n3)c2)N=N1
yes,14,25,–,–,–,no,0.306 ± 0.006,0.323 ± 0.013,0.197 ± 0.01,"> 5,000 nM",C#CCCC1(CCNCCOc2cc(C(=O)Nc3cc(OCCN)c4ccccc4n3)nc(C(=O)Nc3cc(OCCN)c4ccccc4n3)c2)N=N1
–,–,–,–,–,–,–,–,–,0.168 ± 0.008,–,NCCOc1cc(C(=O)Nc2cc(OCCN)c3ccccc3n2)nc(C(=O)Nc2cc(OCCN)c3ccccc3n2)c1
